From patent US10196363B2, “Dihydropyrimidin-2-one compounds and medical use thereof” (JAPAN TOBACCO INC., priority 2014, dated 2019)

Columns and labels:
human RORγ = molecular target: T1, human RORγ (Homo sapiens, UniProt P51449); assay: In vitro assay of inhibitory effect against RORγ transcriptional activity (GAL4-hRORγ LBD luciferase reporter gene assay in CHO cells); format: cell-based; conditions: for EC50: GAL4-hRORγ LBD / pG5-Luc in CHO cells, 2 days incubation
T1 construct: human RORγ, from Ser253 to Lys518; expressed in transfected cells; host or cells: CHO cells (Chinese hamster ovary), transient co-transfection with pG5-Luc
T1 sequence (P51449 253-518): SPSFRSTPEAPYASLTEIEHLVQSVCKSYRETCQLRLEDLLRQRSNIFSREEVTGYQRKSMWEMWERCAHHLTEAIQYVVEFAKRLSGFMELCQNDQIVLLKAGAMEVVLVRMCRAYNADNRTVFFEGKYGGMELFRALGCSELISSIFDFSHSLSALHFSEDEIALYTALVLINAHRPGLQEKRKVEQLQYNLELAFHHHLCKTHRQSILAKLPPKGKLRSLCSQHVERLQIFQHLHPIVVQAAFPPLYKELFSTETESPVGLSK
How it was run: (§1)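 In this reporter assay, compounds acted for 2 days on transfected CHO cells carrying GAL4-RORγ LBD (human or mouse) with pG5-Luc. Percent values refer to the 0.2% DMSO control.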

mouse RORγ = molecular target: T2, mouse RORγ (Mus musculus, UniProt P51450); assay: In vitro assay of inhibitory effect against RORγ transcriptional activity (GAL4-mRORγ LBD luciferase reporter gene assay in CHO cells); format: cell-based; conditions: for EC50: GAL4-mRORγ LBD / pG5-Luc in CHO cells, 2 days incubation
T2 construct: mouse RORγ, from Ile251 to Lys516; expressed in transfected cells; host or cells: CHO cells (Chinese hamster ovary), transient co-transfection with pG5-Luc
T2 sequence (P51450 251-516): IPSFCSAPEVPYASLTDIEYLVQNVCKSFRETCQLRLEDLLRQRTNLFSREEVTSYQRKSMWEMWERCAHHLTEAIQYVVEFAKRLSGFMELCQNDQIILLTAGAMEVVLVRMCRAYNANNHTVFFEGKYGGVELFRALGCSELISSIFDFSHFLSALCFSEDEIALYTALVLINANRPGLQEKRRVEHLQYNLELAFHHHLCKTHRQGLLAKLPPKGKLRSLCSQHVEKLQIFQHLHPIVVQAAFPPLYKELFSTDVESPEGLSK
How it was run: as §1

[1] = value in parentheses beside the > EC50 bound, vehicle-control 0.2% DMSO alone = 100%

| EC50 (human RORγ) [nM] | EC50 (mouse RORγ) [nM] | mRORγ luciferase activity, %-of-control (mouse RORγ; [1]) | hRORγ luciferase activity, %-of-control (human RORγ; [1]) | Structure (SMILES) |
| --- | --- | --- | --- | --- |
| 505 | 758 |  |  | CC(C)C1=CN(CCC2(C(=O)O)CC2)C(=O)N[C@]1(C)c1ccc(CCC(C)(C)C)c(Cl)c1 [Example 71] |
| 13 | 17 |  |  | CC(C)C1=CN(CCC2(C(=O)O)CC2)C(=O)N[C@@]1(C)c1ccc(CCC(C)(C)C)c(Cl)c1 [Example 72] |
| 803 | 657 |  |  | CC(C)C1=CN(C(C)CCC(=O)O)C(=O)NC1(C)c1ccc(CCC(C)(C)C)c(Cl)c1 (centres unmarked) [Example 73] |
| 986 | 1100 |  |  | CC(C)C1=CN(CCCC(C)(C)C(=O)O)C(=O)N[C@]1(C)c1ccc(CCC(C)(C)C)c(Cl)c1 [Example 74] |
| 296 | 316 |  |  | CC(C)C1=CN(CCCC(C)(C)C(=O)O)C(=O)N[C@@]1(C)c1ccc(CCC(C)(C)C)c(Cl)c1 [Example 75] |
| 3470 | 6360 |  |  | CC(C)C1=CN(C23CC(C(=O)O)(C2)C3)C(=O)N[C@]1(C)c1ccc(CCC(C)(C)C)c(Cl)c1 [Example 76] |
| 15 | 24 |  |  | CC(C)C1=CN(C23CC(C(=O)O)(C2)C3)C(=O)N[C@@]1(C)c1ccc(CCC(C)(C)C)c(Cl)c1 [Example 77] |
| 6490 | 10800 |  |  | CC(C)C1=CN([C@H]2CC[C@H](C(=O)O)CC2)C(=O)N[C@]1(C)c1ccc(CCC(C)(C)C)c(Cl)c1 [Example 78] |
| 16 | 18 |  |  | CC(C)C1=CN([C@H]2CC[C@H](C(=O)O)CC2)C(=O)N[C@@]1(C)c1ccc(CCC(C)(C)C)c(Cl)c1 [Example 79] |
| 980 | 790 |  |  | CC(C)C1=CN(CCc2ccccc2C(=O)O)C(=O)N[C@]1(C)c1ccc(CCC(C)(C)C)c(Cl)c1 [Example 82] |
| 40 | 43 |  |  | CC(C)C1=CN(CCc2ccccc2C(=O)O)C(=O)N[C@@]1(C)c1ccc(CCC(C)(C)C)c(Cl)c1 [Example 83] |
| 6770 | > 8000 | (51%) |  | CC(C)C1=CN(CCC(=O)O)C(=O)N[C@]1(C)c1ccc(CCC(C)(C)C)c(Cl)c1 [Example 86, 3-{(R)-4-[3-Chloro-4-(3,3-dimethyl-butyl)-phenyl]-5-isopropyl-4-methyl-2-oxo-3,4-dihydro-2H-pyrimidin-1-yl}-propionic Acid] |
| 11 | 15 |  |  | CC(C)C1=CN(CCC(=O)O)C(=O)N[C@@]1(C)c1ccc(CCC(C)(C)C)c(Cl)c1 [Example 87, 3-{(S)-4-[3-Chloro-4-(3,3-dimethyl-butyl)-phenyl]-5-isopropyl-4-methyl-2-oxo-3,4-dihydro-2H-pyrimidin-1-yl}-propionic Acid] |
| 443 | 422 |  |  | CC(C)C1=CN(CC[C@@H](O)C(=O)O)C(=O)N[C@]1(C)c1ccc(CCC(C)(C)C)c(Cl)c1 [Example 88] |
| 16 | 16 |  |  | CC(C)C1=CN(CC[C@@H](O)C(=O)O)C(=O)N[C@@]1(C)c1ccc(CCC(C)(C)C)c(Cl)c1 [Example 89] |
| 539 | 1150 |  |  | CC(C)(C)CCc1ccc([C@@]2(C)NC(=O)N(CCCC(=O)O)C=C2C2CCOCC2)cc1Cl [Example 91] |
| 13 | 20 |  |  | CC(C)(C)CCc1ccc([C@]2(C)NC(=O)N(CCCC(=O)O)C=C2C2CCOCC2)cc1Cl [Example 92] |
| 2140 | 2540 |  |  | CC(C)C1=CN(CC(=O)O)C(=O)N[C@]1(C)c1ccc(CCC(C)(C)C)c(Cl)c1 [Example 93] |
| 152 | 142 |  |  | CC(C)C1=CN(CC(=O)O)C(=O)N[C@@]1(C)c1ccc(CCC(C)(C)C)c(Cl)c1 [Example 94] |
| > 3200 | 5680 |  | (66%) | CC(C)(C)CCc1ccc([C@@]2(C)NC(=O)N([C@H]3C[C@H](C(=O)O)C3)C=C2C2CC(F)(F)C2)cc1Cl [Example 95] |
| 33 | 26 |  |  | CC(C)(C)CCc1ccc([C@]2(C)NC(=O)N([C@H]3C[C@H](C(=O)O)C3)C=C2C2CC(F)(F)C2)cc1Cl [Example 96] |
